Results on 7 compounds are retold here after US20230277504A1, “COMPOSITIONS AND METHODS COMPRISING CELECOXIB OR RELATED COMPOUNDS AND DEXTROMETHORPHAN” (ANTECIP BIOVENTURES II LLC, priority 2012, published 2023).

Values joined by “and” are separate entries in the source; they are usually repeats but may differ in a detail not shown here. Identical values can stand only once. Like-named read-outs stand apart in the source and are kept apart here.

The target of series [1] is T1, dextromethorphan metabolism (demethylation; CYP2D6) in human liver microsomes (Homo sapiens, UniProt P10635).
T1 construct: in the presence of dextromethorphan (2.5 μM) and human liver microsomes (0.5 mg/mL) at 37° C; from tissue; host or cells: human liver microsomes
Kind of series: Inhibition of dextromethorphan metabolism in human liver microsomes. The series is classed as in vitro ADME. The protocol: Inhibition of dextromethorphan metabolism was examined using human liver microsomes. […] In addition, the assay contained NADPH (2 mM), MgCl2 (3 mM), and potassium phosphate buffer (50 mM) at pH 7.4. The assay was initiated by adding the NADPH, and incubation was terminated after 10 minutes by addition of acetonitrile. The samples were centrifuged, and the metabolism of dextromethorphan was analyzed by LC/MS/MS. […] The same assay was carried out on a number of NSAIDs.
(In general: Microsomes from liver hold many membrane-bound enzymes, among them those of drug oxidation.)

The next series relates to pain. The conditions noted are these: cited from earlier work.
The conditions of series [2]: extensive metabolizers of dextromethorphan; 'believed to be'; cited from earlier work.

T1 sequence (P10635 whole entry): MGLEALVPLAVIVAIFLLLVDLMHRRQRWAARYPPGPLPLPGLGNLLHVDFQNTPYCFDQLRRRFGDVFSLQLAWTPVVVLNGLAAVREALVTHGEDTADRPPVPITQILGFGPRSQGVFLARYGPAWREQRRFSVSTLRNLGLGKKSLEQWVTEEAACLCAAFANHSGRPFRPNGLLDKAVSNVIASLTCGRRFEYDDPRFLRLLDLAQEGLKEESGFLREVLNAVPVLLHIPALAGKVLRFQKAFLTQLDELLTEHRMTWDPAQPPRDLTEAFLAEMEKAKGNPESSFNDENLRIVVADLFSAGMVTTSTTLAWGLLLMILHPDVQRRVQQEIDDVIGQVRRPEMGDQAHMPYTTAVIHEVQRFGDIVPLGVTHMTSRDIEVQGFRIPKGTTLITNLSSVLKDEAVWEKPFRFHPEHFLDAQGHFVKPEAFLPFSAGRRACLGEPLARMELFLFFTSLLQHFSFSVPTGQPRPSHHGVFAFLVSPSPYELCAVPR

Usually IC50 stands for the concentration that inhibits the measured activity by half. As for `COc1ccc2cc(CC(=O)O)ccc2c1` [6-methoxy-2-naphthyl acetic acid], in series [1] (human liver microsomes 0.5 mg/mL, dextromethorphan 2.5 μM, NADPH 2 mM, 37° C., pH 7.4, 10 minutes, LC/MS/MS, read-out: IC50 (inhibition of dextromethorphan metabolism)), the IC50 is > 1760 µM.

Turning to `COc1ccc2c(c1)[C@]13CCCC[C@@H]1[C@H](C2)N(C)CC3` [dextromethorphan, Dextromethorphan], the analgesic efficacy entry with pain (double-blind human studies in chronic and neuropathic pain, review of Weinbroum et al.) is on record as “ineffective for the most part”; in the series with pain (patients with facial neuralgias, Gilron et al.), “little or no analgesic efficacy”. In addition, the “pain reduction versus placebo” value in the series with pain (patients with diabetic neuropathy and postherpetic neuralgia, Sang et al.) is given as “did not reduce pain significantly more than placebo”. In series [2], the clearance entry was “about 110 L/min”.

Regarding `Cc1ccc(-c2cc(C(F)(F)F)nn2-c2ccc(S(N)(=O)=O)cc2)cc1` [Celecoxib], in series [1], the half-maximal inhibitory concentration (IC50) was in the range of 2.6 to 2.9 µM and the “times as active at inhibiting the metabolism of dextromethorphan as the next best compound” value is listed as “about five”. Moreover, the IC50 in series [1] (IC50 (inhibition of dextromethorphan metabolism), human liver microsomes 0.5 mg/mL, dextromethorphan 2.5 μM, NADPH 2 mM, 37° C., pH 7.4, 10 minutes, LC/MS/MS) is 2.6 µM and 2.9 µM. Besides, the “times as active at inhibiting the metabolism of dextromethorphan as 6-methoxy-2-naphthyl acetic acid” value in series [1] (human, 10 min, pH 7.4) is “more than 500 times”.

For the compound `CC(C(=O)O)c1ccc(-c2ccccc2)c(F)c1` (stereo not shown) [Flurbiprofen], the IC50 in series [1] was > 320 µM.

With `CC1=C(CC(=O)O)c2cc(F)ccc2/C1=C\c1ccc([S+](C)[O-])cc1` (stereo not shown) [Sulindac], the IC50 in series [1] is > 36 µM.

`CS(=O)(=O)c1ccc(C2=C(c3ccccc3)C(=O)OC2)cc1` [Rofecoxib] displayed a half-inhibitory concentration (IC50) in series [1] of 44.5 µM.

`Cc1onc(-c2ccccc2)c1-c1ccc(S(N)(=O)=O)cc1` [Valdecoxib] registered an IC50 in series [1] of 15.2 µM.
